Reference: patent EP2857388A1, “Azoles containing sulfone” (Grünenthal GmbH, priority 2013, dated 2015)

biological target: T1, human B1R (Homo sapiens, UniProt P46663); assay: Functional assay at bradykinin receptor 1 (B1R): Ca2+ fluorescence (Fluo-4) in FLIPR/Novostar, antagonist mode; assay type: cell-based; conditions: test substance 10 µM; CHO K1 cells stably transfected with human B1R gene (hB1R-Zellen); agonist Lys-Des-Arg9-Bradykinin at EC80; % inhibition relative to maximal achievable inhibition; read-out: % Inhibierung (human B1R) bei 10 µM
T1 construct: expressed in transfected cells; host or cells: CHO K1 cells (Chinese Hamster Ovary), stably transfected
T1 sequence (P46663 1-353): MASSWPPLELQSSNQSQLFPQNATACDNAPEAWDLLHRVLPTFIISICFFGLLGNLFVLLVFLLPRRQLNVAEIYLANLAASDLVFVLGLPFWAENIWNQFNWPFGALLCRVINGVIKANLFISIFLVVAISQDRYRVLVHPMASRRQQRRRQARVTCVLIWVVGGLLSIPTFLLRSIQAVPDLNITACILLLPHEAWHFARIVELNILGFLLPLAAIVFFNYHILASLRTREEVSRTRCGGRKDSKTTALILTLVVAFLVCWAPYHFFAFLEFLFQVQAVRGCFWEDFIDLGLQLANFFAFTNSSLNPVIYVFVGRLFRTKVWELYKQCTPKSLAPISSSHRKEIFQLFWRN
Experimental: Die agonistische bzw. antagonistische Wirkung von Substanzen kann am Bradykinin Rezeptor 1 (B1R) der Spezies Mensch und Ratte mit ektopisch exprimierenden Zelllinien (CHO K1 Zellen) und mit Hilfe eines Ca^2+-sensitiven Farbstoffs (Fluo-4) im Fluorescent Imaging Plate Reader (FLIPR) quantifiziert werden. Die Angabe in % Aktivierung wird bezogen auf das Ca^2+-Signal nach Zugabe von Lys-Des-Arg^9-Bradykinin ([…]), bzw. Des-Arg^9-Bradykinin (100 nM). Antagonisten führen zu einer Unterdrückung des Ca^2+-Einstroms nach der Zugabe des Agonisten. Angegeben werden % Inhibition im Vergleich zu der maximal erreichbaren Inhibition.
Die agonistische bzw. antagonistische Wirkung von Substanzen kann am Bradykinin Rezeptor 1 (B1R) der Spezies Mensch und Ratte mit folgendem Assay bestimmt werden. Gemäß diesem Assay wird der intrazelluläre Ca^2+-Anstieg nach Gabe eines B1 R Agonisten mit Hilfe eines Ca^2+-sensitiven Farbstoffs (Typ Fluo-4, Molecular Probes Europe BV, Leiden NL) im Fluorescent Imaging Plate Reader (FLIPR, Molecular Devices, Sunnyvale, USA) und/oder im Novostar (BMG Labtech GmbH, Offenburg, DE) quantifiziert.
Es werden Chinese Hamster Ovary Zellen (CHO K1 Zellen) verwendet, die stabil mit dem humanen B1 R-Gen (hB1R-Zellen) bzw. dem B1 R-Gen der Ratte (rB1R-Zellen) transfiziert sind. Für funktionelle Untersuchungen werden diese Zellen auf schwarze 96-Loch-Platten mit klarem Boden (BD Biosciences, Heidelberg, DE oder Greiner, Frickenhausen, DE) in einer Dichte von 20.000 - 35.000 Zellen/Loch ausplattiert. Über Nacht werden die Zellen bei 37°C und 5 % CO2 in Kulturmedium (hB1 R-Zellen: Nutrient Mixture Ham's F12, Gibco Invitrogen GmbH, Karlsruhe, Deutschland oder DMEM, Sigma-Aldrich, Taufkirchen, Deutschland; rB1R-Zellen: D-MEM/F12, Gibco Invitrogen GmbH, Karlsruhe, DE) mit 10 Vol-% FBS (Fetal bovine serum, Gibco Invitrogen GmbH, Karlsruhe, DE oder PAN Biotech GmbH, Aidenbach, DE) belassen. Am folgenden Tag werden die Zellen mit 2,13 µM Fluo-4 (Molecular Probes Europe BV, Leiden, NL) in HBSS-Puffer (Hank's buffered saline solution, Gibco Invitrogen GmbH, Karlsruhe, DE) mit 2,5 mM Probenecid (Sigma-Aldrich, Taufkirchen, DE) und 10 mM HEPES (Sigma-Aldrich, Taufkirchen, DE) für 60 min bei 37°C beladen. Anschließend werden die Platten 2 x mit HBSS-Puffer gewaschen und mit HBSS-Puffer versetzt, der zusätzlich 0,1 % BSA (bovines Serumalbumin; Sigma-Aldrich, Taufkirchen, Deutschland), 5,6 mM Glucose und 0,05 % Gelatine (Merck KGaA, Darmstadt, DE) enthält. Nach einer weiteren Inkubation von 20 Minuten bei RT werden die Platten zur Ca^2+-Messung im FLIPR oder Novostar eingesetzt. Alternativ wird mit Puffer A (15 mM HEPES, 80 mM NaCl, 5 mM KCI, 1,2 mM CaCl2, 0,7 mM MgSO4, 2g/L Glucose, 2,5 mM Probenecid) gewaschen und mit Puffer A versetzt mit 2,5 µM Fluo-4 und 0,025 % Pluronic F127 (Sigma-Aldrich, Taufkirchen, DE) beladen. Danach werden die Zellen 2 x mit Puffer A gewaschen und für 30 Minuten mit Puffer A, der zusätzlich 0,05 % BSA und 0,05 % Gelatine enthält bei RT inkubiert und danach zur Ca^2+-Messung im FLIPR oder Novostar eingesetzt.
Die Ca^2+-abhängige Fluoreszenz wird dabei vor und nach Zugabe von Substanzen gemessen (λex = 488 nm, λem = 540 nm). Die Quantifizierung erfolgt durch die Messung der höchsten Fluoreszenzintensität (FC, Fluorescence Counts) über die Zeit.
Das FLIPR-Protokoll besteht aus 2 Substanzzugaben, die im FLIPR pipettiert werden. Bei Messungen im Novostar wird nur die zweite Substanzzugabe im Gerät pipettiert. Beide Geräte messen die Fluoreszenzintensität über die Zeit. Zunächst werden Testsubstanzen (10 µM) auf die Zellen pipettiert und der intrazelluläre Ca^2+-Anstieg mit der Kontrolle (hB1 R: Lys-Des-Arg^9-Bradykinin >= 50 nM; rB1 R: Des-Arg^9-Bradykinin >= 1 µM) verglichen. Daraus ergibt sich die Angabe in % Aktivierung bezogen auf das Ca^2+-Signal nach Zugabe von Lys-Des-Arg^9-Bradykinin (>= 50 nM), bzw. Des-Arg^9-Bradykinin (>=1 µM). Nach 6-20 Minuten Inkubation werden Lys-Des-Arg^9-Bradykinin (hB1 R) bzw. […]

| inhibition at 10 µM [%] | Structure (SMILES) |
| --- | --- |
| 100 | Cc1cc(S(=O)(=O)Cc2noc(C(=O)NC3CCC(N4CCCC4)CC3(C)C)n2)c(C)cc1Cl (centres unmarked) [CC-22, 3-[[(4-Chlor-2,5-dimethyl-phenyl)sulfonyl]-methyl]-N-(2,2-dimethyl-4-pyrrolidin-1-yl-cyclohexyl)-[1,2,4]oxadiazol-5-carbonsäure amid] |
| 100 | COc1cc(C)c(S(=O)(=O)Cc2noc(CC(=O)NC3CCC(N4CCCC4)CC3(C)C)n2)c(C)c1 (centres unmarked) [CC-23, N-(2,2-Dimethyl-4-pyrrolidin-1-yl-cyclohexyl)-2-[3-[[(4-methoxy-2,6-dimethyl-phenyl)sulfonyl]-methyl]-[1,2,4]oxadiazol-5-yl]-acetamid] |
| 86 | Cc1cc(S(=O)(=O)Cc2noc(C(=O)NC3CCNCC3(C)C)n2)c(C)cc1Cl (centres unmarked) [CC-24, 3-[[(4-Chlor-2,5-dimethyl-phenyl)sulfonyl]-methyl]-N-(3,3-dimethyl-piperidin-4-yl)-[1,2,4]oxadiazol-5-carbonsäure amid] |
| 100 | COc1cc(C)c(S(=O)(=O)Cc2nc(CC(=O)NC3CCC(N4CCCC4)CC3(C)C)no2)c(C)c1 (centres unmarked) [CC-26, N-(2,2-Dimethyl-4-pyrrolidin-1-yl-cyclohexyl)-2-[5-[[(4-methoxy-2,6-dimethyl-phenyl)sulfonyl]-methyl]-[1,2,4]oxadiazol-3-yl]-acetamid] |
| 100 | COCCN1CCC(NC(=O)Cc2noc(CS(=O)(=O)c3c(C)cc(OC)cc3C)n2)C(C)(C)C1 (centres unmarked) [CC-27, 2-[5-[[(4-Methoxy-2,6-dimethyl-phenyl)sulfonyl]-methyl]-[1,2,4]oxadiazol-3-yl]-N-[1-(2-methoxy-ethyl)-3,3-dimethyl-piperidin-4-yl]-acetamid] |
| 100 | COc1cc(C)c(S(=O)(=O)Cc2nc(CC(=O)NC3CCC(N(C)C)CC3)no2)c(C)c1 (centres unmarked) [CC-28, N-(4-Dimethylamino-cyclohexyl)-2-[5-[[(4-methoxy-2,6-dimethyl-phenyl)sulfonyl]-methyl]-[1,2,4]oxadiazol-3-yl]-acetamid] |
| 100 | COc1cc(C)c(S(=O)(=O)Cc2nnc(CC(=O)NC3CCC(N4CCCC4)CC3(C)C)o2)c(C)c1 (centres unmarked) [CC-29, N-(2,2-Dimethyl-4-pyrrolidin-1-yl-cyclohexyl)-2-[5-[[(4-methoxy-2,6-dimethyl-phenyl)sulfonyl]-methyl]-[1,3,4]oxadiazol-2-yl]-acetamid] |
| 100 | COCCN1CCC(NC(=O)Cc2nnc(CS(=O)(=O)c3c(C)cc(OC)cc3C)o2)C(C)(C)C1 (centres unmarked) [CC-31, 2-[5-[[(4-Methoxy-2,6-dimethyl-phenyl)sulfonyl]-methyl]-[1,3,4]oxadiazol-2-yl]-N-[1-(2-methoxy-ethyl)-3,3-dimethyl-piperidin-4-yl]-acetamid] |
| 100 | COc1cc(C)c(S(=O)(=O)Cc2nc(CC(=O)NC3CCC(N4CCCC4)CC3)no2)c(C)c1 (centres unmarked) [CC-32, 2-[5-[[(4-Methoxy-2,6-dimethyl-phenyl)sulfonyl]-methyl]-[1,2,4]oxadiazol-3-yl]-N-(4-pyrrolidin-1-yl-cyclohexyl)-acetamid] |
| 100 | COc1cc(C)c(S(=O)(=O)Cc2nc(CC(=O)NC3CCC(N4CCN(C)CC4)CC3(C)C)no2)c(C)c1 (centres unmarked) [CC-33, N-[2,2-Dimethyl-4-(4-methyl-piperazin-1-yl)-cyclohexyl]-2-[5-[[(4-methoxy-2,6-dimethyl-phenyl)sulfonyl]-methyl]-[1,2,4]oxadiazol-3-yl]-acetamid] |
| 100 | COc1cc(C)c(S(=O)(=O)Cc2nnc(CC(=O)NC3CCC(N(C)C)CC3)o2)c(C)c1 (centres unmarked) [CC-34, N-(4-Dimethylamino-cyclohexyl)-2-[5-[[(4-methoxy-2,6-dimethyl-phenyl)sulfonyl]-methyl]-[1,3,4]oxadiazol-2-yl]-acetamid] |
| 100 | COc1cc(C)c(S(=O)(=O)Cc2nc(CC(=O)NC3CCC(NC4CC4)CC3(C)C)no2)c(C)c1 (centres unmarked) [CC-35, N-[4-(Cyclopropylamino)-2,2-dimethyl-cyclohexyl]-2-[5-[[(4-methoxy-2,6-dimethyl-phenyl)sulfonyl]-methyl]-[1,2,4]oxadiazol-3-yl]-acetamid] |
| 100 | COc1cc(C)c(S(=O)(=O)Cc2nnc(CC(=O)NC3CCC(c4ccncc4)CC3(C)C)o2)c(C)c1 (centres unmarked) [CC-36, N-(2,2-Dimethyl-4-pyridin-4-yl-cyclohexyl)-2-[5-[[(4-methoxy-2,6-dimethyl-phenyl)sulfonyl]-methyl]-[1,3,4]oxadiazol-2-yl]-acetamid] |
| 99 | COc1cc(C)c(S(=O)(=O)Cc2nc(CC(=O)NC3CCC(c4ccncc4)CC3(C)C)no2)c(C)c1 (centres unmarked) [CC-37, N-(2,2-Dimethyl-4-pyridin-4-yl-cyclohexyl)-2-[5-[[(4-methoxy-2,6-dimethyl-phenyl)sulfonyl]-methyl]-[1,2,4]oxadiazol-3-yl]-acetamid] |
| 100 | COc1cc(C)c(S(=O)(=O)Cc2nc(CC(=O)NC3CCNCC3)no2)c(C)c1 [CC-42, 2-[5-[[(4-Methoxy-2,6-dimethyl-phenyl)sulfonyl]-methyl]-[1,2,4]oxadiazol-3-yl]-N-piperidin-4-yl-acetamid] |
| 99 | Cc1cc(S(=O)(=O)Cc2noc(CC(=O)NC3CCC(N4CCCC4)CC3(C)C)n2)c(C)cc1Cl (centres unmarked) [CC-43, 2-[3-[[(4-Chlor-2,5-dimethyl-phenyl)sulfonyl]-methyl]-[1,2,4]oxadiazol-5-yl]-N-(2,2-dimethyl-4-pyrrolidin-1-yl-cyclohexyl)-acetamid] |
| 100 | Cc1cc(S(=O)(=O)Cc2noc(CC(=O)NC3CCC(N4CCN(C)CC4)CC3(C)C)n2)c(C)cc1Cl (centres unmarked) [CC-45, 2-[3-[[(4-Chlor-2,5-dimethyl-phenyl)sulfonyl]-methyl]-[1,2,4]oxadiazol-5-yl]-N-[2,2-dimethyl-4-(4-methyl-piperazin-1-yl)-cyclohexyl]-acetamid] |
| 64 | CC(=O)N1CCC(NC(=O)Cc2nc(CS(=O)(=O)c3cc(C)c(Cl)cc3C)no2)C(C)(C)C1 (centres unmarked) [CC-46, N-(1-Acetyl-3,3-dimethyl-piperidin-4-yl)-2-[3-[[(4-chlor-2,5-dimethyl-phenyl)sulfonyl]-methyl]-[1,2,4]oxadiazol-5-yl]-acetamid] |

| Structure (SMILES) | inhibition at 10 µM [%] |
| --- | --- |
| COc1cc(C)c(S(=O)(=O)Cc2nc(CC(=O)NC3CCN(C(C)=O)CC3(C)C)no2)c(C)c1 (centres unmarked) [CC-30, N-(1-Acetyl-3,3-dimethyl-piperidin-4-yl)-2-[5-[[(4-methoxy-2,6-dimethyl-phenyl)sulfonyl]-methyl]-[1,2,4]oxadiazol-3-yl]-acetamid] | 90 |
| COc1cc(C)c(S(=O)(=O)Cc2nnc(CC(=O)NC3CCC(N4CCCC4)CC3)o2)c(C)c1 (centres unmarked) [CC-40] | 100 |
